# Results: patent US20250059174A1, “Pharmaceutical Compounds and Compositions as C-Kit Kinase Inhibitors” (Enanta Pharmaceuticals, Inc., priority 2023, published 2025)
# Biological target: Recombinant human c-KIT kinase (Homo sapiens (Human), UniProt P10721)
# Assay: c-KIT kinase chemiluminescence assay (ADP-Glo)
# Format: biochemical
# Conditions: ATP 50 μM
# Summary of the method: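 ADP formed by c-KIT on polyEY over 2 h at RT (after 30 min enzyme preincubation; Tris pH 7.5, MgCl2, BSA, DTT buffer) was detected by ADP-Glo luminescence. IC50 and Hill slope were fitted to control-normalized activity across compound concentrations.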
# Sequence of Recombinant human c-KIT kinase (P10721 26-976): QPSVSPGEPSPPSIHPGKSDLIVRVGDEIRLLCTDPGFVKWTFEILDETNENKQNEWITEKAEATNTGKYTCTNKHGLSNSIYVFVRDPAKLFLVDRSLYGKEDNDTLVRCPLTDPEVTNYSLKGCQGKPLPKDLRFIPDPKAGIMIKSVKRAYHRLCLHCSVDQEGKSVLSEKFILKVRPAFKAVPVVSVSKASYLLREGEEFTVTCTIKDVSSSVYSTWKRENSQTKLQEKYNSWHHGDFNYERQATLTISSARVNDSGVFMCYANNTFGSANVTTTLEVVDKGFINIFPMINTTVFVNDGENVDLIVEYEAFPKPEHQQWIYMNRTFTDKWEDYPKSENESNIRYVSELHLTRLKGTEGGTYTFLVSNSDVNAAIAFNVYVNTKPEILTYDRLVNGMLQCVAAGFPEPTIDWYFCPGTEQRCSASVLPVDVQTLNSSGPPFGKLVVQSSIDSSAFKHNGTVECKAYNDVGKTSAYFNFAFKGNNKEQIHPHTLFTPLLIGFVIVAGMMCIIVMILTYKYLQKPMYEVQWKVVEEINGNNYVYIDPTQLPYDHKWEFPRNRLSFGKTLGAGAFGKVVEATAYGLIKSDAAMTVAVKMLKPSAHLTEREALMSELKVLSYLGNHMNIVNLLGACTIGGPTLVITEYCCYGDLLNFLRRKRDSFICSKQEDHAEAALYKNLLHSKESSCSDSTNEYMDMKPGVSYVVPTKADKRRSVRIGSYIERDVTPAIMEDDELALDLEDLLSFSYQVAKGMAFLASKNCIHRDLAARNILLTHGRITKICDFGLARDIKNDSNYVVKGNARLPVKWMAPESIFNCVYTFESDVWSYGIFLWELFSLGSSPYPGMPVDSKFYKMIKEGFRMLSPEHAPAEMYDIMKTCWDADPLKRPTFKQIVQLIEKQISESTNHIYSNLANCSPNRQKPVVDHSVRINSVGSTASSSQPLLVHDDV
row,Structure (SMILES),IC50
1,Cc1ccc(-c2noc([C@H]3C[C@@H]3F)n2)cc1NC(=O)c1cnn2ccc(Nc3cn[nH]c3)cc12 [Example 238],< 100 nM
2,Cc1ncc(-c2ncc(C(F)F)cn2)cc1NC(=O)c1cnn2ccc(N3CC4(C3)CC(O)(C(F)F)C4)cc12 [Example 327],100 to 1000 nM
3,Cc1ccc(-c2noc([C@H]3C[C@@H]3F)n2)cc1NC(=O)c1cnn2ccc(-c3cnn(CC(C)(C)O)c3)cc12 [Example 142],< 100 nM
4,Cc1ccc(-c2noc([C@H]3C[C@H]3C(F)F)n2)cc1NC(=O)c1cnn2ccc(N3CC4(COC4)C3)cc12 [Example 276],< 100 nM
5,Cc1ccc(-c2noc([C@H]3C[C@@H](OC(F)(F)F)C3)n2)cc1NC(=O)c1cnn2ccc(N3CC4(CNC4)C3)cc12 [Example 260],< 100 nM
6,Cc1ncc(-c2ccc(OC(F)F)nc2)cc1NC(=O)c1cnn2ccc(N3CC4(COC4)C3)cc12 [Example 330],100 to 1000 nM
7,Cc1ccc(-c2noc([C@H]3C[C@@H](OC(F)(F)F)C3)n2)cc1NC(=O)c1cnn2ccc(N3CC4(COC4)C3)cc12 [Example 243],< 100 nM
8,Cc1ccc(-c2noc([C@H]3C[C@@H]3F)n2)cc1NC(=O)c1cnn2cc(-c3cn(C[C@H](C)O)nn3)ccc12 [Example 117],< 100 nM
9,Cc1ccc(-c2noc([C@H]3C[C@@H]3F)n2)cc1NC(=O)c1cnn2ccc(N3CC4(COC4)C3)cc12 [Example 43],< 100 nM
10,Cc1ccc(-c2noc([C@H]3C[C@@H](OC(F)(F)F)C3)n2)nc1NC(=O)c1cnn2ccc(N3CC4(COC4)C3)cc12 [Example 267],100 to 1000 nM
11,Cc1ccc(-c2cnc(C3CC3)nc2)cc1NC(=O)c1cnn2ccc(N3CC4(COC4)C3)cc12 [Example 340],< 100 nM
12,Cc1ccc(-c2noc([C@H]3C[C@@H]3F)n2)cc1NC(=O)c1cnn2ccc(-c3cn(CCO)nn3)cc12 [Example 110],100 to 1000 nM
13,CO[C@H]1C[C@H](c2nc(-c3ccc(C)c(NC(=O)c4cnn5ccc(N6CC7(COC7)C6)cc45)c3)no2)C1 [Example 274],100 to 1000 nM
14,COc1ccc(-n2cc(C(=O)Nc3cc(-c4noc([C@H]5C[C@@H]5F)n4)ccc3C)cn2)cc1 [Example 52],100 to 1000 nM
15,C=CCC1c2ccccc2-c2ncc(C(=O)Nc3cc(-c4noc([C@H]5C[C@@H]5F)n4)ccc3C)n21 (stereo partly shown) [Example 103],100 to 1000 nM
16,Cc1ccc(-c2ncc(C3CC3)cn2)cc1NC(=O)c1cnc(-c2ccc3c(c2)CC(=O)N3)o1 [Example 363],< 100 nM
17,Cc1ccc(-c2noc([C@H]3C[C@@H]3F)n2)cc1NC(=O)c1cnn2ccc(N3CC4(CCN4C(=O)OC(C)(C)C)C3)cc12 [Example 235],> 1000 nM

# Second part, the molecule after the results:
row,IC50,Structure (SMILES)
1,> 1000 nM,Cc1ncc(-c2noc(C3CN(C(=O)OC(C)(C)C)C3)n2)cc1NC(=O)c1cnn2ccc(N3CC4(C3)CC(O)(C(F)F)C4)cc12 [Example 281-90]
2,> 1000 nM,Cc1ncc(-c2noc([C@H]3C[C@@H]3F)n2)cc1NC(=O)c1cnc(-c2ccc3c(c2)CC(=O)N3)o1 [Example 308-12]
3,> 1000 nM,Cc1ncc(-c2nnn(C3CNC3)n2)cc1NC(=O)c1cnn2ccc(N3CC4(C3)CC(O)(C(F)F)C4)cc12 [Example 312-8]
4,< 100 nM,COC(=O)N1CC2(CC(c3nc(-c4ccc(C)c(NC(=O)c5cnn6ccc(N7CC8(C7)CC(O)(C(F)F)C8)cc56)c4)no3)C2)C1 [Example 281-109]
5,< 100 nM,Cc1ccc(-c2noc([C@H]3C[C@@H]3F)n2)cc1NC(=O)c1cnn2ccc(-c3cnc(N4CC5(COC5)C4)cc3C)cc12 [Example 171-25]
6,< 100 nM,Cc1cnc(-c2ccn3ncc(C(=O)Nc4cc(-c5noc([C@H]6C[C@@H]6F)n5)ccc4C)c3c2)c(C)n1 [Example 171-30]
7,< 100 nM,O=C(Nc1cc(-c2noc([C@H]3C[C@@H](C(F)(F)F)C3)n2)ccc1Cl)c1cnn2ccc(N3CC4(C3)CC(O)(C(F)F)C4)cc12 [Example 281-27]
8,< 100 nM,Cc1ccc(-c2noc([C@H]3C[C@@H]3F)n2)cc1NC(=O)c1cnn2ccc(-c3cnccn3)cc12 [Example 171-9]
9,100 to 1000 nM,COC(=O)N1C[C@@H](c2nc(-c3cnc(C)c(NC(=O)c4cnn5ccc(N6CC7(C6)CC(O)(C(F)F)C7)cc45)c3)no2)[C@@H]1C [Example 281-17]

# System: M-07e cells
# Assay: M-07e cellular assay (SCF-mediated cell proliferation)
# Format: cell-based
# Conditions: Homo sapiens, 72 hours, CellTiter Glo
# Summary of the method: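 EC50 values reflect inhibition of SCF-driven proliferation, with SCF at EC90 and a 72 h compound exposure, measured as CellTiter Glo luminescence. Growth is scaled between no-SCF (0%) and untreated (100%) wells.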
row,Structure (SMILES),EC50
1,Cc1ccc(-c2noc([C@H]3C[C@@H]3F)n2)cc1NC(=O)c1cnn2ccc(Nc3cn[nH]c3)cc12 [Example 238],< 100 nM
2,Cc1ncc(-c2noc(C3CN(C(=O)OC(C)(C)C)C3)n2)cc1NC(=O)c1cnn2ccc(N3CC4(C3)CC(O)(C(F)F)C4)cc12 [Example 281-90],100 to 1000 nM
3,Cc1ncc(-c2ncc(C(F)F)cn2)cc1NC(=O)c1cnn2ccc(N3CC4(C3)CC(O)(C(F)F)C4)cc12 [Example 327],100 to 1000 nM
4,Cc1ccc(-c2noc([C@H]3C[C@@H]3F)n2)cc1NC(=O)c1cnn2ccc(-c3cnn(CC(C)(C)O)c3)cc12 [Example 142],< 100 nM
5,Cc1ccc(-c2noc([C@H]3C[C@H]3C(F)F)n2)cc1NC(=O)c1cnn2ccc(N3CC4(COC4)C3)cc12 [Example 276],< 100 nM
6,Cc1ccc(-c2noc([C@H]3C[C@@H](OC(F)(F)F)C3)n2)cc1NC(=O)c1cnn2ccc(N3CC4(CNC4)C3)cc12 [Example 260],100 to 1000 nM
7,Cc1ncc(-c2ccc(OC(F)F)nc2)cc1NC(=O)c1cnn2ccc(N3CC4(COC4)C3)cc12 [Example 330],< 100 nM
8,Cc1ccc(-c2noc([C@H]3C[C@@H](OC(F)(F)F)C3)n2)cc1NC(=O)c1cnn2ccc(N3CC4(COC4)C3)cc12 [Example 243],< 100 nM
9,Cc1ncc(-c2noc([C@H]3C[C@@H]3F)n2)cc1NC(=O)c1cnc(-c2ccc3c(c2)CC(=O)N3)o1 [Example 308-12],100 to 1000 nM
10,Cc1ccc(-c2noc([C@H]3C[C@@H]3F)n2)cc1NC(=O)c1cnn2cc(-c3cn(C[C@H](C)O)nn3)ccc12 [Example 117],< 100 nM
11,Cc1ncc(-c2nnn(C3CNC3)n2)cc1NC(=O)c1cnn2ccc(N3CC4(C3)CC(O)(C(F)F)C4)cc12 [Example 312-8],> 1000 nM
12,Cc1ccc(-c2noc([C@H]3C[C@@H]3F)n2)cc1NC(=O)c1cnn2ccc(N3CC4(COC4)C3)cc12 [Example 43],< 100 nM
13,COC(=O)N1CC2(CC(c3nc(-c4ccc(C)c(NC(=O)c5cnn6ccc(N7CC8(C7)CC(O)(C(F)F)C8)cc56)c4)no3)C2)C1 [Example 281-109],100 to 1000 nM
14,Cc1ccc(-c2noc([C@H]3C[C@@H]3F)n2)cc1NC(=O)c1cnn2ccc(-c3cnc(N4CC5(COC5)C4)cc3C)cc12 [Example 171-25],< 100 nM
15,Cc1ccc(-c2noc([C@H]3C[C@@H](OC(F)(F)F)C3)n2)nc1NC(=O)c1cnn2ccc(N3CC4(COC4)C3)cc12 [Example 267],100 to 1000 nM
16,Cc1cnc(-c2ccn3ncc(C(=O)Nc4cc(-c5noc([C@H]6C[C@@H]6F)n5)ccc4C)c3c2)c(C)n1 [Example 171-30],< 100 nM
17,Cc1ccc(-c2cnc(C3CC3)nc2)cc1NC(=O)c1cnn2ccc(N3CC4(COC4)C3)cc12 [Example 340],< 100 nM
18,O=C(Nc1cc(-c2noc([C@H]3C[C@@H](C(F)(F)F)C3)n2)ccc1Cl)c1cnn2ccc(N3CC4(C3)CC(O)(C(F)F)C4)cc12 [Example 281-27],< 100 nM
19,Cc1ccc(-c2noc([C@H]3C[C@@H]3F)n2)cc1NC(=O)c1cnn2ccc(-c3cn(CCO)nn3)cc12 [Example 110],< 100 nM
20,CO[C@H]1C[C@H](c2nc(-c3ccc(C)c(NC(=O)c4cnn5ccc(N6CC7(COC7)C6)cc45)c3)no2)C1 [Example 274],< 100 nM
21,COc1ccc(-n2cc(C(=O)Nc3cc(-c4noc([C@H]5C[C@@H]5F)n4)ccc3C)cn2)cc1 [Example 52],100 to 1000 nM
22,C=CCC1c2ccccc2-c2ncc(C(=O)Nc3cc(-c4noc([C@H]5C[C@@H]5F)n4)ccc3C)n21 (stereo partly shown) [Example 103],100 to 1000 nM
23,Cc1ccc(-c2noc([C@H]3C[C@@H]3F)n2)cc1NC(=O)c1cnn2ccc(-c3cnccn3)cc12 [Example 171-9],< 100 nM
24,COC(=O)N1C[C@@H](c2nc(-c3cnc(C)c(NC(=O)c4cnn5ccc(N6CC7(C6)CC(O)(C(F)F)C7)cc45)c3)no2)[C@@H]1C [Example 281-17],< 100 nM
25,Cc1ccc(-c2ncc(C3CC3)cn2)cc1NC(=O)c1cnc(-c2ccc3c(c2)CC(=O)N3)o1 [Example 363],< 100 nM
26,Cc1ccc(-c2noc([C@H]3C[C@@H]3F)n2)cc1NC(=O)c1cnn2ccc(N3CC4(CCN4C(=O)OC(C)(C)C)C3)cc12 [Example 235],> 1000 nM
